Patent publication EP1007530B1, “6-O-SUBSTITUTED ERYTHROMYCIN COMPOUNDS AND METHOD FOR MAKING SAME” (ABBOTT LABORATORIES, priority 1996, dated 1997)

Tests used:
Test in all cases: In vitro assay of antibacterial activity (agar dilution MIC)
Format in all cases: cell-based
Candida albicans CCH 442 = details: BHI agar, 35-37 °C, 20 to 24 hours, unit assumed
How it was run: (§1)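 Twelve plates of successive aqueous compound dilutions in Brain Heart Infusion agar were spot-inoculated by replicator with 1:100 culture dilutions (1:10 for slow growers such as Streptococcus) and incubated 20 to 24 hours at 35-37 °C. MIC was the lowest concentration giving no growth, slight haze or sparse colonies versus the drug-free control.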

[1] = tested on: Providencia struartii CMX 640; details: BHI agar, 35-37 °C, 20 to 24 hours, unit assumed
How it was run: as §1

[2] = tested on: Streptococcus pyogenes PIU 2548; details: BHI agar, 35-37 °C, 20 to 24 hours, unit assumed
How it was run: as §1

Pseudomonas capacia 2961 = details: BHI agar, 35-37 °C, 20 to 24 hours, in µg/mL (unit assumed)
How it was run: as §1

Escherichia coli DC-2 = details: BHI agar, 35-37 °C, 20 to 24 hours, unit assumed
How it was run: as §1

[3] = tested on: Streptococcus bovis A-5169; details: BHI agar, 35-37 °C, 20 to 24 hours, unit assumed
How it was run: as §1

[4] = tested on: Enterobacter aerogenes ATCC 13048; details: BHI agar, 35-37 °C, 20 to 24 hours, unit assumed
How it was run: as §1

[5] = tested on: Micrococcus luteus ATCC 9341; details: BHI agar, 35-37 °C, 20 to 24 hours, unit assumed
How it was run: as §1

[6] = tested on: Pseudomonas aeruginosa 5007; details: BHI agar, 35-37 °C, 20 to 24 hours, unit assumed
How it was run: as §1

[7] = tested on: Streptococcus pyogenes 930; details: BHI agar, 35-37 °C, 20 to 24 hours, unit assumed
How it was run: as §1

[8] = tested on: Staphylococcus epidermidis 3519; details: BHI agar, 35-37 °C, 20 to 24 hours, unit assumed
How it was run: as §1

[9] = tested on: Klebsiella pneumoniae ATCC 8045; details: BHI agar, 35-37 °C, 20 to 24 hours, unit assumed
How it was run: as §1

Escherichia coli KNK 437 = details: BHI agar, 35-37 °C, 20 to 24 hours, unit assumed
How it was run: as §1

[10] = tested on: Streptococcus pyogenes EES61; details: BHI agar, 35-37 °C, 20 to 24 hours, unit assumed
How it was run: as §1

[11] = tested on: Staphylococcus aureus ATCC 6538P; details: BHI agar, 35-37 °C, 20 to 24 hours, unit assumed
How it was run: as §1

[12] = tested on: Staphylococcus aureus NCTC10649M; details: BHI agar, 35-37 °C, 20 to 24 hours, unit assumed
How it was run: as §1

[13] = tested on: Staphylococcus aureus CMX 642A; details: BHI agar, 35-37 °C, 20 to 24 hours, unit assumed
How it was run: as §1

Escherichia coli JUHL = details: BHI agar, 35-37 °C, 20 to 24 hours, in µg/mL (unit assumed)
How it was run: as §1

[14] = tested on: Micrococcus luteus ATCC 4698; details: BHI agar, 35-37 °C, 20 to 24 hours, unit assumed
How it was run: as §1

[15] = tested on: Mycobacterium smegmatis ATCC 114; details: BHI agar, 35-37 °C, 20 to 24 hours, unit assumed
How it was run: as §1

[16] = tested on: Staphylococcus aureus A-5278; details: BHI agar, 35-37 °C, 20 to 24 hours, unit assumed
How it was run: as §1

[17] = tested on: Staphylococcus aureus 1775; details: BHI agar, 35-37 °C, 20 to 24 hours, unit assumed
How it was run: as §1

[18] = tested on: Pseudomonas aeruginosa DPHD-5263; details: BHI agar, 35-37 °C, 20 to 24 hours, in µg/mL (unit assumed)
How it was run: as §1

[19] = tested on: Streptococcus agalactiae CMX 508; details: BHI agar, 35-37 °C, 20 to 24 hours, unit assumed
How it was run: as §1

[20] = tested on: Staphylococcus aureus CMX 553; details: BHI agar, 35-37 °C, 20 to 24 hours, unit assumed
How it was run: as §1

[21] = tested on: Pseudomonas aeruginosa BMH10; details: BHI agar, 35-37 °C, 20 to 24 hours, in µg/mL (unit assumed)
How it was run: as §1

[22] = tested on: Pseudomonas aeruginosa K799/WT; details: BHI agar, 35-37 °C, 20 to 24 hours, unit assumed
How it was run: as §1

Escherichia coli H560 = details: BHI agar, 35-37 °C, 20 to 24 hours, unit assumed
How it was run: as §1

[23] = tested on: Pseudomonas aeruginosa K799/61; details: BHI agar, 35-37 °C, 20 to 24 hours, unit assumed
How it was run: as §1

[24] = tested on: Nocarrdia asteroides ATCC 9970; details: BHI agar, 35-37 °C, 20 to 24 hours, unit assumed
How it was run: as §1

[25] = tested on: Pseudomonas aeruginosa DPHD-2862; details: BHI agar, 35-37 °C, 20 to 24 hours, unit assumed
How it was run: as §1

Escherichia coli SS = details: BHI agar, 35-37 °C, 20 to 24 hours, unit assumed
How it was run: as §1

[26] = tested on: Enterococcus faecium ATCC 8043; details: BHI agar, 35-37 °C, 20 to 24 hours, unit assumed
How it was run: as §1

[27] = tested on: Actinetobacter calcoaceticus CMX 669; details: BHI agar, 35-37 °C, 20 to 24 hours, unit assumed
[28] = tested on: Staphylococcus aureus A5177; details: BHI agar, 35-37 °C, 20 to 24 hours, unit assumed

SMILES: CC[C@H]1OC(=O)[C@H](C)[C@@H](O[C@H]2C[C@@](C)(OC)[C@@H](O)[C@H](C)O2)[C@H](C)[C@@H](O[C@@H]2O[C@H](C)C[C@H](N(C)C)[C@H]2O)[C@](C)(OCC=O)C[C@@H](C)C(=O)[C@H](C)[C@@H](O)[C@]1(C)O [Example 8, Compound of Formula (X): X is =O, R is 2-oxoethyl]
- MIC (Candida albicans CCH 442): > 100 µg/mL
- MIC [1]: > 100 µg/mL
- MIC [2]: 25 µg/mL
- MIC (Pseudomonas capacia 2961): > 100
- MIC (Escherichia coli DC-2): > 100 µg/mL
- MIC [3]: 0.2 µg/mL
- MIC [4]: > 100 µg/mL
- MIC [5]: 0.1 µg/mL
- MIC [6]: > 100 µg/mL
- MIC [7]: > 100 µg/mL
- MIC [8]: 0.78 µg/mL
- MIC [9]: > 100 µg/mL
- MIC (Escherichia coli KNK 437): > 100 µg/mL
- MIC [10]: 0.1 µg/mL
- MIC [11]: 0.78 µg/mL
- MIC [12]: 0.78 µg/mL
- MIC [13]: 0.78 µg/mL
- MIC (Escherichia coli JUHL): 100
- MIC [14]: 1.56 µg/mL
- MIC [15]: 6.2 µg/mL
- MIC [16]: > 100 µg/mL
- MIC [17]: > 100 µg/mL
- MIC [18]: > 100
- MIC [19]: 0.39 µg/mL
- MIC [20]: 0.78 µg/mL
- MIC [21]: > 100
- MIC [22]: > 100 µg/mL
- MIC (Escherichia coli H560): 50 µg/mL
- MIC [23]: 3.1 µg/mL
- MIC [24]: 0.39 µg/mL
- MIC [25]: > 100 µg/mL
- MIC (Escherichia coli SS): 1.56 µg/mL
- MIC [26]: 0.39 µg/mL
- MIC [27]: 50 µg/mL
- MIC [28]: 12.5 µg/mL
